Laboratory results from PubChem BioAssay (NCI).
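Following 48 hours of exposure in 96-well plates, responses at five concentrations were used to interpolate endpoints linearly. GI50 marks 50% less growth. TGI marks complete inhibition of growth.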

Experiments:
Assay in all cases: inhibition of tumour cell growth, NCI panel, 48 h
[1] = test system: LOX IMVI melanoma
[2] = test system: HCT-116 colon
[3] = test system: HCT-15 colon
[4] = test system: RPMI-8226 leukemia
[5] = test system: OVCAR-5 ovarian
[6] = test system: HS 578T breast
[7] = test system: MOLT-4 leukemia
[8] = test system: HT29 colon
[9] = test system: DU-145 prostate
[10] = test system: A498 renal
[11] = test system: UACC-257 melanoma
[12] = test system: KM12 colon
[13] = test system: HCC-2998 colon
[14] = test system: TK-10 renal
[15] = test system: SNB-75 CNS
[16] = test system: NCI-H226 lung
[17] = test system: OVCAR-3 ovarian
[18] = test system: NCI-H522 lung
[19] = test system: HL-60(TB) leukemia
[20] = test system: UO-31 renal
[21] = test system: T-47D breast
[22] = test system: MCF7 breast
[23] = test system: SF-295 CNS
[24] = test system: HOP-62 NSCLC
[25] = test system: MDA-MB-231 breast
[26] = test system: NCI/ADR-RES ovarian
[27] = test system: UACC-62 melanoma
[28] = test system: SR leukemia
[29] = test system: A549 NSCLC
[30] = test system: SF-539 CNS
[31] = test system: SW-620 colon
[32] = test system: SK-MEL-2 melanoma
[33] = test system: MALME-3M melanoma
[34] = test system: ACHN renal
[35] = test system: IGROV1 ovarian
[36] = test system: NCI-H460 lung
[37] = test system: COLO 205 colon
[38] = test system: SK-OV-3 ovarian
[39] = test system: SN12C renal
[40] = test system: CCRF-CEM leukemia
[41] = test system: CAKI-1 renal
[42] = test system: OVCAR-4 ovarian
[43] = test system: SK-MEL-28 melanoma
[44] = test system: MDA-MB-435
[45] = test system: K-562 leukemia
[46] = test system: U251 CNS
[47] = test system: PC-3 prostate
[48] = test system: M14 melanoma
[49] = test system: SF-268 CNS
[50] = test system: 786-0 renal
[51] = test system: SNB-19 CNS
[52] = test system: HOP-92 NSCLC
[53] = test system: EKVX NSCLC
[54] = test system: RXF 393 renal

For `NC(=O)c1cc(-c2ccc3ncnc(N4CCc5cc(F)c(Cl)cc54)c3c2)cnc1N`, which GI50 [1] is on record?
Its GI50 is 1690 nM.

And the TGI [1]?
The TGI was 12300 nM.

And the GI50 [2]?
Its GI50 is 1220 nM.

What about the TGI [2] of the same compound?
The TGI was 2810 nM.

And the GI50 [3]?
The GI50 was 2020 nM.

What about the TGI [3] of the same compound?
The TGI was > 100000 nM.

And the GI50 [4]?
The GI50 was 1390 nM.

What about the TGI [4] of the same compound?
Its TGI is 11300 nM.

And the GI50 [5]?
Its GI50 is 1820 nM.

What about the TGI [5] of the same compound?
The TGI was 47900 nM.

What about the GI50 [6] of the same compound?
Its GI50 is 839 nM.

And the TGI [6]?
Its TGI is 7650 nM.

What about the GI50 [7] of the same compound?
The GI50 was 1250 nM.

And the TGI [7]?
The TGI was 6230 nM.

And the GI50 [8]?
Its GI50 is 1140 nM.

And the TGI [8]?
Its TGI is 9760 nM.

What about the GI50 [9] of the same compound?
The GI50 was 1790 nM.

And the TGI [9]?
Its TGI is 27400 nM.

And the GI50 [10]?
The GI50 was 336 nM.

What about the TGI [10] of the same compound?
Its TGI is 2460 nM.

What about the GI50 [11] of the same compound?
The GI50 was 2830 nM.

What about the TGI [11] of the same compound?
Its TGI is > 100000 nM.

What about the GI50 [12] of the same compound?
The GI50 was 2330 nM.

And the TGI [12]?
The TGI was 10900 nM.

What about the GI50 [13] of the same compound?
The GI50 was 1680 nM.

And the TGI [13]?
The TGI was 7090 nM.

And the GI50 [14]?
The GI50 was 519 nM.

And the TGI [14]?
Its TGI is 27900 nM.

What about the GI50 [15] of the same compound?
Its GI50 is 524 nM.

What about the TGI [15] of the same compound?
The TGI was 5800 nM.

And the GI50 [16]?
The GI50 was 3040 nM.

What about the TGI [16] of the same compound?
Its TGI is 33100 nM.

And the GI50 [17]?
Its GI50 is 1670 nM.

What about the TGI [17] of the same compound?
Its TGI is 10000 nM.

And the GI50 [18]?
Its GI50 is 1550 nM.

What about the TGI [18] of the same compound?
The TGI was 4720 nM.

And the GI50 [19]?
Its GI50 is 573 nM.

What about the TGI [19] of the same compound?
Its TGI is 6180 nM.

What about the GI50 [20] of the same compound?
Its GI50 is 311 nM.

What about the TGI [20] of the same compound?
Its TGI is 10600 nM.

And the GI50 [21]?
Its GI50 is 273 nM.

What about the TGI [21] of the same compound?
The TGI was 2360 nM.

What about the GI50 [22] of the same compound?
Its GI50 is 317 nM.

What about the TGI [22] of the same compound?
Its TGI is 2150 nM.

And the GI50 [23]?
The GI50 was 1470 nM.

And the TGI [23]?
Its TGI is 4260 nM.

And the GI50 [24]?
Its GI50 is 1370 nM.

What about the TGI [24] of the same compound?
The TGI was 7220 nM.

What about the GI50 [25] of the same compound?
Its GI50 is 2020 nM.

And the TGI [25]?
Its TGI is 16200 nM.

What about the GI50 [26] of the same compound?
Its GI50 is 3220 nM.

What about the TGI [26] of the same compound?
The TGI was > 100000 nM.

What about the GI50 [27] of the same compound?
The GI50 was 1620 nM.

What about the TGI [27] of the same compound?
Its TGI is 18300 nM.

What about the GI50 [28] of the same compound?
Its GI50 is 1870 nM.

And the TGI [28]?
The TGI was 16200 nM.

And the GI50 [29]?
The GI50 was 1050 nM.

And the TGI [29]?
The TGI was 13400 nM.

What about the GI50 [30] of the same compound?
The GI50 was 1490 nM.

What about the TGI [30] of the same compound?
Its TGI is 3560 nM.

And the GI50 [31]?
The GI50 was 2410 nM.

What about the TGI [31] of the same compound?
The TGI was 19400 nM.

What about the GI50 [32] of the same compound?
Its GI50 is 1540 nM.

And the TGI [32]?
Its TGI is 4020 nM.

And the GI50 [33]?
Its GI50 is 1510 nM.

And the TGI [33]?
Its TGI is 15200 nM.

What about the GI50 [34] of the same compound?
The GI50 was 801 nM.

And the TGI [34]?
Its TGI is 17000 nM.

And the GI50 [35]?
Its GI50 is 279 nM.

And the TGI [35]?
The TGI was 1620 nM.

What about the GI50 [36] of the same compound?
Its GI50 is 1300 nM.

What about the TGI [36] of the same compound?
The TGI was 3960 nM.

And the GI50 [37]?
Its GI50 is 2700 nM.

And the TGI [37]?
The TGI was 21400 nM.

What about the GI50 [38] of the same compound?
The GI50 was 1090 nM.

What about the TGI [38] of the same compound?
The TGI was 4180 nM.

And the GI50 [39]?
The GI50 was 1030 nM.

And the TGI [39]?
Its TGI is 25000 nM.

What about the GI50 [40] of the same compound?
Its GI50 is 2950 nM.

And the TGI [40]?
The TGI was 34800 nM.

What about the GI50 [41] of the same compound?
Its GI50 is 529 nM.

And the TGI [41]?
The TGI was 17000 nM.

What about the GI50 [42] of the same compound?
The GI50 was 1280 nM.

What about the TGI [42] of the same compound?
Its TGI is 2950 nM.

What about the GI50 [43] of the same compound?
The GI50 was 2670 nM.

What about the TGI [43] of the same compound?
Its TGI is 28500 nM.

And the GI50 [44]?
The GI50 was 2300 nM.

What about the TGI [44] of the same compound?
Its TGI is > 100000 nM.

And the GI50 [45]?
The GI50 was 3350 nM.

What about the TGI [45] of the same compound?
Its TGI is > 100000 nM.

What about the GI50 [46] of the same compound?
Its GI50 is 2440 nM.

What about the TGI [46] of the same compound?
The TGI was 18800 nM.

What about the GI50 [47] of the same compound?
Its GI50 is 976 nM.

What about the TGI [47] of the same compound?
Its TGI is 5270 nM.

And the GI50 [48]?
The GI50 was 2840 nM.

And the TGI [48]?
Its TGI is 41400 nM.

What about the GI50 [49] of the same compound?
Its GI50 is 1880 nM.

And the TGI [49]?
Its TGI is 49800 nM.

What about the GI50 [50] of the same compound?
The GI50 was 1190 nM.

And the TGI [50]?
The TGI was 10400 nM.

What about the GI50 [51] of the same compound?
The GI50 was 1820 nM.

And the TGI [51]?
The TGI was > 100000 nM.

And the GI50 [52]?
The GI50 was 231 nM.

What about the TGI [52] of the same compound?
Its TGI is 2630 nM.

What about the GI50 [53] of the same compound?
The GI50 was 806 nM.

And the TGI [53]?
The TGI was 15300 nM.

What about the GI50 [54] of the same compound?
Its GI50 is 656 nM.

What about the TGI [54] of the same compound?
Its TGI is 2590 nM.
